Measurements as given in patent US12565490B2, “Inhibitors of Receptor Interacting Protein Kinase I for the treatment of disease” (Board of Regents, The University of Texas System, priority 2020, dated 2026).

These compounds were tested on human monocytic cell line U937 (assay: Human U937 cellular necroptosis assay). Details: U-937; U937 cells stimulated with 25 ng/mL human TNFalpha and 25 μM z-VAD-FMK; 22 hr; viability by Cell Titer-Glo 2.0; read-out: hU937 IC50.
Assay type: cell-based
Protocol: Human U937 Cellular Necroptosis Assay
The human monocytic cell line U937 (CRL-1593.2) may be purchased from ATCC. The cells are routinely maintained in RPMI-1640 Medium (Gibco, Catalog #11875-093) supplemented with 10% heat inactivated fetal bovine serum (Gibco, Catalog #16140-071), 100 units/mL penicillin and 100 μg/mL streptomycin (Gibco, Catalog #15140-122), in a humidified incubator (37° C., 5% CO2). For the assay, cells are resuspended in RPMI-1640 phenol red free Media (Gibco, Catalog #11835-030) supplemented with 10% fetal bovine serum (Sigma, Catalog #F2442), 100 units/mL penicillin and 100 ug/mL streptomycin. Cells are stimulated with 25 ng/mL human TNFalpha (Cell Sciences, Catalog #CSI15659B) and 25 μM z-VAD-FMK (R&D Systems, Catalog #FMK001) followed by seeding 5000 cells per well in a volume of 40 μL to a white, CulturPlate-384 (Perkin Elmer, Catalog #6007680). Stock solutions of the test compounds are prepared in 100% DMSO (Sigma, Catalog #D2650) and serially diluted 1:3 using 100% DMSO. Compounds are additionally diluted 1:40 in assay medium, and 10 μL/well was transferred to the plate. Following the compound addition, the plate is incubated at 37° C. and 5% CO2 for 22 hr. After 22 hr, viability is assessed with the addition of 20 μL of Cell Titer-Glo 2.0 (Promega, Catalog #G9243). The tissue culture plate is shaken on an orbital shaker at 300 RPM for 15 minutes at room temperature in the dark. Luminescence is measured using a PerkinElmer Envision™ plate reader. IC50 values are calculated using a four-parameter logistic curve fit using Genedata Screener software. Compounds disclosed herein are expected to have activity in this assay.

**Q.** `Cc1cnc(C(=O)N[C@H]2COc3cc(C#N)ccc3N(C)C2=O)nc1N1CCN(C)CC1` [Example 31, (S)-N-(8-cyano-5-methyl-4-oxo-2,3,4,5-tetrahydro-benzo[b][1,4]oxazepin-3-yl)-5-methyl-4-(4-methylpiperazin-1-yl)pyrimidine-2-carboxamide] was tested. Which IC50 did it give?
**A.** The IC50 was no less than 10000 nM.

**Q.** For `Cc1cnc(C(=O)N[C@H]2COc3cc(C#N)ccc3N(C)C2=O)nc1N1CC(F)(F)C1` [Example 32, (S)-N-(8-cyano-5-methyl-4-oxo-2,3,4,5-tetrahydro-benzo[b][1,4]oxazepin-3-yl)-4-(3,3-difluoroazetidin-1-yl)-5-methylpyrimidine-2-carboxamide], which IC50 is on record?
**A.** The IC50 was 1120 nM.

**Q.** `Cc1ccc(C(=O)N[C@H]2COc3cc(C#N)ccc3N(C)C2=O)nc1Br` [Example 33, (S)-6-bromo-N-(8-cyano-5-methyl-4-oxo-2,3,4,5-tetrahydro-benzo[b][1,4]oxazepin-3-yl)-5-methylpicolinamide] was tested. Which IC50 did it give?
**A.** Its IC50 is no less than 10000 nM.

**Q.** For `Cc1ccc(C(=O)Nc2cccc(Cl)c2F)nc1-c1ccccc1` [Example 34, N-(3-chloro-2-fluorophenyl)-5-methyl-6-phenylpicolinamide], which IC50 is on record?
**A.** Its IC50 is no less than 10000 nM.

**Q.** Which IC50 does the source give for `Cc1ccc(C(=O)Nc2cccc(Cl)c2F)nc1-c1cc(F)ccc1F` [Example 35, N-(3-chloro-2-fluorophenyl)-6-(2,5-difluorophenyl)-5-methylpicolinamide] here?
**A.** The IC50 was no less than 10000 nM.

**Q.** With `Cc1ccc(C(=O)N[C@H]2COc3cc(C#N)ccc3N(C)C2=O)nc1-c1ccc(F)cc1` [Example 36, (S)-N-(8-cyano-5-methyl-4-oxo-2,3,4,5-tetrahydro-benzo[b][1,4]oxazepin-3-yl)-6-(4-fluorophenyl)-5-methyl-picolinamide] as the compound, how does the IC50 read?
**A.** Its IC50 is 260 nM.

**Q.** `CN1C(=O)[C@@H](NC(=O)c2ccc(Cl)c(-c3ccc(F)cc3)n2)COc2cc(C#N)ccc21` [Example 37, (S)-5-chloro-N-(8-cyano-5-methyl-4-oxo-2,3,4,5-tetrahydro-benzo[b][1,4]oxazepin-3-yl)-6-(4-fluorophenyl)picolinamide] was tested. Which IC50 did it give?
**A.** Its IC50 is 1560 nM.

**Q.** For `Cc1cnc(C(=O)N[C@H]2COc3cc(C#N)ccc3N(C)C2=O)nc1-c1ccc(F)cc1F` [Example 38, (S)-N-(8-cyano-5-methyl-4-oxo-2,3,4,5-tetrahydro-benzo[b][1,4]oxazepin-3-yl)-4-(2,4-difluorophenyl)-5-methyl-pyrimidine-2-carboxamide], which IC50 is on record?
**A.** Its IC50 is 18.9 nM.

**Q.** For `Cc1cnc(C(=O)N[C@H]2COc3ccc(CN4CCn5ncnc5C4)cc3N(C)C2=O)nc1-c1ccccc1` [Example 39, (S)-N-(7-((5,6-dihydro-[1,2,4]triazolo[1,5-a]pyrazin-7(8H)-yl)methyl)-5-methyl-4-oxo-2,3,4,5-tetrahydro-benzo[b][1,4]oxazepin-3-yl)-5-methyl-4-phenylpyrimidine-2-carboxamide], which IC50 is on record?
**A.** Its IC50 is 12.9 nM.

**Q.** For `Cc1ccc(C(=O)N[C@H]2COc3cc(C#N)ccc3N(C)C2=O)nc1-c1ccccc1` [Example 40, (S)-N-(8-cyano-5-methyl-4-oxo-2,3,4,5-tetrahydro-benzo[b][1,4]oxazepin-3-yl)-5-methyl-6-phenylpicolinamide], which IC50 is on record?
**A.** The IC50 was 1570 nM.

**Q.** For `Cc1ccc(C(=O)N[C@H]2COc3cc(C#N)ccc3N(C)C2=O)nc1-c1cc(F)ccc1F` [Example 41, (S)-N-(8-cyano-5-methyl-4-oxo-2,3,4,5-tetrahydro-benzo[b][1,4]oxazepin-3-yl)-6-(2,5-difluorophenyl)-5-methylpicolinamide], which IC50 is on record?
**A.** Its IC50 is 594 nM.

**Q.** Which IC50 does the source give for `Cc1cnc(C(=O)N[C@H]2COc3cc(C#N)ccc3N(C)C2=O)nc1-c1ccccc1F` [Example 42, (S)-N-(8-cyano-5-methyl-4-oxo-2,3,4,5-tetrahydro-benzo[b][1,4]oxazepin-3-yl)-4-(2-fluorophenyl)-5-methylpyrimidine-2-carboxamide] here?
**A.** The IC50 was 19.4 nM.

**Q.** Which IC50 does the source give for `Cc1cnc(C(=O)N[C@H]2COc3cc(C#N)ccc3N(C)C2=O)nc1C1CCCOC1` (stereo partly drawn) [Example 43, N-((S)-8-cyano-5-methyl-4-oxo-2,3,4,5-tetrahydro-benzo[b][1,4]oxazepin-3-yl)-5-methyl-4-(tetrahydro-2H-pyran-3-yl)pyrimidine-2-carboxamide] here?
**A.** The IC50 was 154 nM.

**Q.** Which IC50 does the source give for `Cc1cnc(C(=O)N[C@H]2COc3cc(C#N)ccc3N(C)C2=O)nc1N1CC2CCC1C2` (stereo partly drawn) [Example 44, 4-(2-azabicyclo[2.2.1]heptan-2-yl)-N-((S)-8-cyano-5-methyl-4-oxo-2,3,4,5-tetrahydro-benzo[b][1,4]oxazepin-3-yl)-5-methylpyrimidine-2-carboxamide] here?
**A.** The IC50 was 789 nM.

**Q.** Which IC50 does the source give for `Cc1cnc(C(=O)N[C@H]2COc3cccnc3N(C)C2=O)nc1-c1ccccc1F` [Example 45, (S)-4-(2-fluorophenyl)-5-methyl-N-(5-methyl-4-oxo-2,3,4,5-tetrahydropyrido[3,2-b][1,4]oxazepin-3-yl)pyrimidine-2-carboxamide] here?
**A.** Its IC50 is 10 nM.

**Q.** With `CN1C(=O)[C@@H](NC(=O)c2ncc(Cl)c(-c3ccc(F)cc3F)n2)COc2ccccc21` [Example 46, (S)-5-chloro-4-(2,4-difluorophenyl)-N-(5-methyl-4-oxo-2,3,4,5-tetrahydrobenzo[b]-[1,4]oxazepin-3-yl)pyrimidine-2-carboxamide] as the compound, how does the IC50 read?
**A.** The IC50 was 11.8 nM.

**Q.** `CN1C(=O)[C@@H](NC(=O)c2ncc(Cl)c(-c3ccccc3F)n2)COc2cccnc21` [Example 47, (S)-5-chloro-4-(2-fluorophenyl)-N-(5-methyl-4-oxo-2,3,4,5-tetrahydro-pyrido[3,2-b][1,4]oxazepin-3-yl)pyrimidine-2-carboxamide] was tested. Which IC50 did it give?
**A.** The IC50 was 29.8 nM.

**Q.** With `CN1C(=O)[C@@H](NC(=O)c2ncc(Cl)c(-c3cccc(F)c3)n2)COc2cccnc21` [Example 48, (S)-5-chloro-4-(3-fluorophenyl)-N-(5-methyl-4-oxo-2,3,4,5-tetrahydro-pyrido[3,2-b][1,4]oxazepin-3-yl)pyrimidine-2-carboxamide] as the compound, how does the IC50 read?
**A.** Its IC50 is 13.2 nM.

**Q.** With `CN1C(=O)[C@@H](NC(=O)c2ncc(Cl)c(-c3ccc(F)cc3)n2)COc2cccnc21` [Example 49, (S)-5-chloro-4-(4-fluorophenyl)-N-(5-methyl-4-oxo-2,3,4,5-tetrahydro-pyrido[3,2-b][1,4]oxazepin-3-yl)pyrimidine-2-carboxamide] as the compound, how does the IC50 read?
**A.** The IC50 was 8.35 nM.

**Q.** Which IC50 does the source give for `CN1C(=O)[C@@H](NC(=O)c2ncc(Cl)c(-c3ccc(F)cc3F)n2)COc2cccnc21` [Example 50, (S)-5-chloro-4-(2,4-difluorophenyl)-N-(5-methyl-4-oxo-2,3,4,5-tetrahydro-pyrido[3,2-b][1,4]oxazepin-3-yl)pyrimidine-2-carboxamide] here?
**A.** Its IC50 is 9.29 nM.

**Q.** Which IC50 does the source give for `CN1C(=O)[C@@H](NC(=O)c2ncc(Cl)c(-c3cc(F)ccc3F)n2)COc2cccnc21` [Example 51, (S)-5-chloro-4-(2,5-difluorophenyl)-N-(5-methyl-4-oxo-2,3,4,5-tetrahydro-pyrido[3,2-b][1,4]oxazepin-3-yl)pyrimidine-2-carboxamide] here?
**A.** The IC50 was 10.6 nM.

**Q.** For `CN1C(=O)[C@@H](NC(=O)c2ncc(Cl)c(-c3ccc(Cl)cc3)n2)COc2cccnc21` [Example 52, (S)-5-chloro-4-(4-chlorophenyl)-N-(5-methyl-4-oxo-2,3,4,5-tetrahydro-pyrido[3,2-b][1,4]oxazepin-3-yl)pyrimidine-2-carboxamide], which IC50 is on record?
**A.** Its IC50 is 12 nM.

**Q.** How did the IC50 turn out when `Cc1ccc(-c2nc(C(=O)N[C@H]3COc4cccnc4N(C)C3=O)ncc2Cl)c(F)c1` [Example 53, (S)-5-chloro-4-(2-fluoro-4-methylphenyl)-N-(5-methyl-4-oxo-2,3,4,5-tetrahydro-pyrido[3,2-b][1,4]oxazepin-3-yl)pyrimidine-2-carboxamide] was run?
**A.** Its IC50 is 11.7 nM.

**Q.** For `Cc1ccc(-c2nc(C(=O)N[C@H]3COc4cccnc4N(C)C3=O)ncc2Cl)cc1F` [Example 54, (S)-5-chloro-4-(3-fluoro-4-methylphenyl)-N-(5-methyl-4-oxo-2,3,4,5-tetrahydro-pyrido[3,2-b][1,4]oxazepin-3-yl)pyrimidine-2-carboxamide], which IC50 is on record?
**A.** Its IC50 is 13.6 nM.

**Q.** With `C[C@H]1Oc2cccnc2N(C)C(=O)[C@H]1NC(=O)c1ncc(Cl)c(-c2ccc(F)cc2F)n1` [Example 55, 5-chloro-4-(2,4-difluorophenyl)-N-((2R,3S)-2,5-dimethyl-4-oxo-2,3,4,5-tetrahydropyrido[3,2-b]-[1,4]oxazepin-3-yl)pyrimidine-2-carboxamide] as the compound, how does the IC50 read?
**A.** The IC50 was 34.4 nM.

**Q.** Which IC50 does the source give for `CN1C(=O)[C@@H](NC(=O)c2ncc(Cl)c(-c3cncc(F)c3)n2)COc2cccnc21` [Example 56, (S)-5-chloro-4-(5-fluoropyridin-3-yl)-N-(5-methyl-4-oxo-2,3,4,5-tetrahydropyrido[3,2-b]-[1,4]oxazepin-3-yl)pyrimidine-2-carboxamide] here?
**A.** Its IC50 is 180 nM.

**Q.** How did the IC50 turn out when `Cc1cnc(C(=O)N[C@H]2COc3cccnc3N(C)C2=O)nc1C12CCC(CC1)CC2` [Example 57, (S)-4-(bicyclo[2.2.2]octan-1-yl)-5-methyl-N-(5-methyl-4-oxo-2,3,4,5-tetrahydro-pyrido[3,2-b][1,4]oxazepin-3-yl)pyrimidine-2-carboxamide] was run?
**A.** The IC50 was 90.9 nM.

**Q.** How did the IC50 turn out when `Cc1cnc(C(=O)N[C@H]2COc3cccnc3N(C)C2=O)nc1C1CCOCC1` [Example 58, (S)-5-methyl-N-(5-methyl-4-oxo-2,3,4,5-tetrahydro-pyrido[3,2-b][1,4]oxazepin-3-yl)-4-(tetrahydro-2H-pyran-4-yl)pyrimidine-2-carboxamide] was run?
**A.** Its IC50 is 229 nM.
